These results are taken from patent publication US12246044B2, “Bacterial and cell compositions for the treatment of colorectal cancer and methods for assessing a prognosis for patients having the same” (priority 2017, dated 2025).

One assay concerns MC38 cancers. Description: MC38 tumor model in SPF mice, OXA + anti-PD-1 Abs plus oral gavage of live bacteria. The class given is in vivo, C57BL/6J mice. To be noted: SPF mice (eubiosis), oral gavage of 10^9 cfu live bacteria before and after OXA. On the procedure: (§1) Syngeneic C57BL/6J mice were implanted with 1×10^6 MC38 WT cells subcutaneously and treated intraperitoneally (i.p.) when tumors were 20 to 30 mm^2 in size with 10 mg/kg oxaliplatin or vehicule (PBS). The composition of the commensal gut microbiota in the treated and non-treated groups was maintained synchronized by cohousing. Tumor size was routinely monitored every 3 days by means of a caliper.
PD-1 blockade was performed by i.p. treatment with anti-PD-1 mAbs (RMP1-14; 200 μg/mouse) or respective isotype controls (2A3) (all antibodies from Bioxcell).
Erysipelothrix tonsillarum and Solobacterium moorei were provided by Prof. Ivo Gomperts Boneca, Institut Pasteur, France. Bacteroides fragilis, Alistipes onderdonkii, Erysipelatoclostridium ramosum, Dialister invisus, Paraprevotella clara isolates were isolated in our laboratory from ileal mucus from patients used in vaccination experiments. Species were grown on COS plates in aerobic or an anaerobic atmosphere created using anaerobic generators (Biomerieux) at 37° C. for 24-72 hrs. Colonization of ATB pre-treated or GF C57BL/6J mice was performed by oral gavage with 100 μl of suspension containing 1×10^9 bacteria in PBS. For bacterial gavage, suspensions of 10^9 CFU/ml were obtained using a fluorescence spectrophotometer (Eppendorf) at an optical density of 1 measured at a wavelength of 600 nm. […]

In another assay the test system is naïve CD4+ T cells. Nature of the assay: Differentiation of naive CD4+ T cells into Th1 cells by DCs charged with HIEC-6 (IFNg ELISA). The following applies: DCs charged with allogeneic HIEC-6 pre-exposed to bacteria and/or OXA; 6 healthy volunteers. The class given is cell-based, human. The method, then:
CD14+ cells were isolated from PBMC obtained from healthy donors (Miltenyi Kit). Monocytes were differentiated into DCs by adding GM-CSF and IL-4 in the culture medium for 6 days. On day 6, immature DCs were harvested and charged with apoptotic intestinal epithelial cells.
For apoptotic IEC cells preparation, HIEC-6 cells (ATCC) were treated with bacteria 1 h, OXA 3 h, and ATB 1 h, and then left ON. The next morning, Apoptotic cells were harvested, washed 3× in PBS and added to the DC culture.
Naïve CD4 T cells were isolated from the matched donor for each experiment (Miltenyi kit) and added to the DC-IEC culture at a 10:1 ratio. The final co-culture was incubated for 6 days. On day 6, anti-CD3 and anti-CD28 mAb were added to the culture. After 24 h incubation supernatants were assayed for IFNg by ELISA (Biolegend).

Another assay has as its system MC38 tumors. Nature of the assay: FMT avatar mice (GF mice colonized with PCAC patient colonic content), MC38, OXA. The assay is classed as in vivo, C57BL/6J mice. To be noted: 12 PCAC patient feces tested. On the procedure: as §1
Frozen fecal samples were thawed and thoroughly vortexed. Large particulate material was allowed to settle by gravity. 200 μl of supernatant was administered in a single dose by oral gavage. Additionally, an extra 100 μl was topically applied onto the fur of each animal. The resulting gnotobiotic mice were maintained in positive pressurized isolators with irradiated food and autoclaved water. […]
Data analyses and representations were performed either with the statistical environment R, Microsoft Excel (Microsoft Co., Redmont, WA, USA) or Prism 5 (GraphPad, San Diego, CA, USA). Tumor growth was analysed with dedicated software (https://kroemerlab.shinyapps.io/TumGrowth). Briefly, data was subjected to a linear mixed effect modeling applied to log pre-processed tumor surfaces. p-values were calculated by testing jointly whether both tumor growth slopes and intercepts (on a log scale) were different between treatment groups of interests. […]

A further assay has as its system ileal mucosae. Description: qRT-PCR of immune gene transcripts in ileal mucosae of avatar mice. The class given is in vivo. The following applies: avatar responders compared to avatar non-responders. On the procedure: Total RNA from gut biopsies was extracted with RNeasy Mini Kit (Qiagen) and then reverse transcribed into cDNA with the SuperScript III Reverse Transcriptase and the RNaseOUT™ Recombinant Ribonuclease Inhibitor (Life Technologies, Saint Aubin, France), in the presence of random primers (Promega, Charbonnieres, France) and the Deoxynucleoside Triphosphate Set, PCR grade (Roche Diagnostics, Meylan, France). cDNA was analyzed by real-time quantitative PCR (RT-qPCR) with the TaqMan method with TaqMan® Gene Expression Assays using the Universal Master Mix II (Invitrogen) according to the manufacturer's instructions using the 7500 Fast Real Time PCR system (Applied Biosystems). Expression was normalized to the expression of the housekeeping gene of Beta 2 Microglobulin by means of the 2^−ΔCt method.

The test system of the next assay is ileal and colonic IEC. Description: Immunohistochemistry of cleaved caspase-3 in colon and ileal mucosae after OXA i.p. The assay is classed as in vivo, mice. The following applies: 6 h after OXA i.p.; ileal versus colonic IEC. On the procedure:
Donor mice were treated with oxaliplatin (10 mg/kg) i.p. for 6 h to induce gut cell death. Control animals were treated with vehicle (PBS) alone. The composition of the commensal gut microbiota in the treated and non-treated groups was maintained synchronized by cohousing. At the end of the treatment, mice were euthanized and the ileum was collected to isolate IEC. One million IECs were then injected s.c. into the left flank of the recipient mice. The procedure was repeated once, 7 days later. Tumor challenge was performed on the right flank 7 days after the last immunization, with doses which obtain 100% of tumor incidence in naïve mice, MC38 (1×10^6 cells), MCA205 (0.8×10^6 cells), CT26 (1×10^6 cells) and 4T1 (0.3×10^6 cells).
FFPE gut sections were deparaffinised and rehydrated through a series of graded alcohols and distilled water. Antigen retrieval was performed by pre-treating sections with 0.01 M sodium citrate buffer (pH 6.0, Diapath) for 30 min in a 98° C. water bath. Endogenous peroxidase activity was inhibited by treating sections with 3% […] (#S202386, DAKO) for 10 min. Sections were blocked with IHC/ISH Super Blocking (#PV6122, LeicaBiosystem) for 10 min. […] Peroxidases were detected with Di Amino Benzidine-peroxidase substrate kit (DAKO), and counterstained with Mayer's haematoxylin. […]

For assay [1], the system named is small intestine enteroids. Description: OXA treatment of stem cell derived small intestine enteroids in vitro. The following applies: culminating in calreticulin cell surface exposure, data not shown. The class given is cell-based, C57BL/6J mice. On the procedure: Crypts were isolated and enriched from the ileum of 8-12 week old C57BL/6J mice as previously described (24) with the following modifications. Briefly, washed pieces of ileum were incubated in crypt chelating buffer (2 mM EDTA in PBS) for 30 minutes on ice. Following the removal of crypt chelating buffer, fragments were vigorously rinsed 3 times with PBS containing 10% FCS and filtered through a 70-μm cell strainer (BD Bioscience). Crypts were pelleted, washed with Advanced DMEM/F12 (ADF) (Invitrogen), resuspended in 1 mL of Matrigel growth factor reduced basement membrane matrix (Corning) and 50 uL drops were pipetted into a 24 well plate. Crypts were overlayed with ADF containing the following: 100 U/mL penicillin G sodium, 100 μg/mL streptomycin sulphate, 2 mM L-glutamine, 10 mM HEPES, 1× N2 supplement, 1× B27 supplement, 50 ng/mL mEGF, 100 ng/mL mNoggin (Peprotech, Hamburg, Germany), N-acetylcysteine (Sigma) (reagents from Invitrogen unless otherwise indicated) and 10% conditioned medium of R-Spondin-1 transfected HEK 293T cells.
IEC suspensions were obtained from enteroids by means of 3 wash dissociation method, as described above. […]

As for Bacteroides fragilis, the “OXA+anti-PD-1 Ab-mediated anticancer effects against established MC38 cancers” value with MC38 cancers is listed as “improved OXA+anti-PD-1 Ab-mediated anticancer effects”. The “HIEC-6 rendered immunogenic (differentiation of T cells into Th1 cells, IFN-gamma)” value in the assay with naïve CD4+ T cells is listed as “rendered immunogenic”.

Regarding `O=C1[O][Pt]2([NH][C@@H]3CCCC[C@H]3[NH]2)[O]C1=O` [OXA, Oxaliplatin], in the assay on MC38 tumors, the “patient feces inducing complete resistance to OXA (avatar non-responders)” value is 4 and the “patient feces resulting in antitumor efficacy of OXA comparable to SPF mice (avatar responders)” value is given as 8/12. Also, in the assay on ileal mucosae, the “ileal TH1/TFH immune tone (Tbx21, Bcl6, Il27, Gata3, Ahr expression) in response to OXA” value is “decrease of the ileal TH1/TFH immune tone”. Further, the “apoptosis-associated cleavage of caspase-3 in vivo” value in the assay with ileal and colonic IEC was “far more prominent in ileal than colonic IEC”. Besides, the apoptosis of enteroids entry in assay [1] is recorded as “triggered a dose-dependent apoptosis”.
